Test results from patent publication US20250326765A1, “PDE4B INHIBITOR AND USE THEREOF” (XIZANG HAISCO PHARMACEUTICAL CO., LTD., priority 2022, published 2025).

Molecular target: T1, PDE4D2 (Homo sapiens, UniProt Q08499)
T1 construct: purchased BPS Bioscience 60345
Test: Effect of compounds on PDE4D2 activity (fluorescence polarization kit)
Format: biochemical
Details: class symbols
Method: The effect of compounds on PDE4D2 activity was detected by a fluorescence polarization kit (BPS Bioscience, Catalog #60345). During the reaction, 12.5 μL of 0.272 ng/well of an enzyme (final concentration: 0.068 ng/well) and 12.5 μL of the compound diluted in a gradient manner (DMSO concentration: 4%) were first pre-incubated at room temperature for 15 minutes, the same volume of the enzyme at the same concentration and 12.5 μL of PDE buffer containing 4% DMSO were added to the positive control well, and 25 μL of PDE buffer containing 2% DMSO was added to the negative control well. After completion, 25 μL of […] FAM-Cyclic-3′,5′-AMP (final concentration: […]) was added to each well, fully mixed, and then incubated at room temperature with slow shaking for 30 minutes. The Binding Agent was diluted with the Binding Agent Diluent (cAMP) at a ratio of 1:100 for later use, 100 μl/well of the Binding Agent dilution was taken and added to all wells of the test plate and incubated at room temperature with slow shaking for 1 hour.
After the incubation was complete, BMG LRBTECH microplate reader was used for FP detection, with Excitation at 485 nm and Emission at 520 nm. FP was usually represented by mP value.
[formula] • I∥ (S520): fluorescence intensity in parallel direction • I⊥ (P520): fluorescence intensity in perpendicular direction • G: G factor=1
(§1) [formula] • mP(sample): mP of the test compound in a reaction well • mP(negative control): mP in the negative control well • mP(positive control): mP in the positive control well
(§2) According to the calculated inhibition rate at each concentration, the IC50 value of each compound was calculated by GraphPad Prism 8 software.

T1 sequence (Q08499 303-809): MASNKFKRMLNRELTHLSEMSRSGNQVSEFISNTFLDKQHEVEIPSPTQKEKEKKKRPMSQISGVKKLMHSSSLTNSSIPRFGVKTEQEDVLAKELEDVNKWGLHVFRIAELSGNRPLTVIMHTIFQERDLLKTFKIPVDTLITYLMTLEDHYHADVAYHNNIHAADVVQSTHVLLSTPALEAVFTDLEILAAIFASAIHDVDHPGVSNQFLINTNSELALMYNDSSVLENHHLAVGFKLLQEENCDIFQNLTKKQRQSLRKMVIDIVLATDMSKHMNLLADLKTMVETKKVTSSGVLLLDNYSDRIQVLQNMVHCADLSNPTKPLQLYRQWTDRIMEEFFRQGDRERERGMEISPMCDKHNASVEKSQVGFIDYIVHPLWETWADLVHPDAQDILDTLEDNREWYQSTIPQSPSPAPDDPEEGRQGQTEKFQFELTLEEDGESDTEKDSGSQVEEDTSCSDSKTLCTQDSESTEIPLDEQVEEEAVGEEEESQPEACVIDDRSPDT

First: [O-][S+]1CCc2nc(N3CC=C(c4ncc(C5CC5)cn4)CC3)nc(NC3(CO)CCC3)c21 (stereo not shown) [Compound 53]
Second: N#CC1(c2cnc(C3=CCN(c4nc5c(c(NC6(CO)CCC6)n4)[S@+]([O-])CC5)CC3)nc2)CC1 [Compound 64]
The IC50 of the first is lower: < 10 nM for the first, 10 to 50 nM for the second.

First: Cc1coc(C2=CCN(c3nc4c(c(NC5(CO)CCC5)n3)[S@+]([O-])CC4)CC2)n1 [Compound 60]
Second: Cc1nnc(C2=CCN(c3nc4c(c(NC5(CO)CCC5)n3)[S@+]([O-])CC4)CC2)o1 [Compound 55]
The IC50 of the first is higher: 10 to 50 nM for the first, < 10 nM for the second. The second is the more potent here.

`CP(C)(=O)c1cnc(C2=CCN(c3nc4c(c(NC5(CO)CCC5)n3)[S@+]([O-])CC4)CC2)nc1` [Compound 59] and `CP(C)(=O)c1ccnc(C2=CCN(c3nc4c(c(NC5(CO)CCC5)n3)[S@+]([O-])CC4)CC2)n1` [Compound 71] fall in the same range of IC50: 10 to 50 nM for the first, 10 to 50 nM for the second.

Compared with `[O-][S@+]1CCc2nc(C3=CCN(c4ncc(Cl)cn4)CC3)nc(NC3(CO)CCC3)c21` [Compound 32], `C[Si]1(C)CCN(c2cnc(C3=CCN(c4nc5c(c(NC6(CO)CCC6)n4)[S@+]([O-])CC5)CC3)nc2)CC1` [Compound 54] is lower in IC50: 10 to 50 nM for the first, < 10 nM for the second. The second is the more potent here.

First: [O-][S@+]1CCc2nc(N3C[C@H]4CN(c5ccc(Cl)cc5)C[C@H]4C3)nc(NC3(CO)CCC3)c21 [Compound 6]
Second: [O-][S@+]1CCc2nc(N3CC4(CC(c5ccc(Cl)cc5)C4)C3)nc(NC3(CO)CCC3)c21 [Compound 10]
The IC50 of the first is lower: < 10 nM for the first, 10 to 50 nM for the second.

Compared with `[O-][S@+]1CCc2nc(N3CCC(c4ccc5c(c4)CCC5)CC3)nc(NC3(CO)CCC3)c21` [Compound 9], `[O-][S+]1CCc2nc(N3CCC4=C(CCc5cc(Cl)ccc54)C3)nc(NC3(CO)CCC3)c21` (stereo not shown) [Compound 30] is lower in IC50: 10 to 50 nM for the first, < 10 nM for the second.

First: [O-][S@+]1CCc2nc(N3C[C@H]4CN(c5ncc6c(n5)CC6)C[C@H]4C3)nc(NC3(CO)CCC3)c21 [Compound 65]
Second: C#Cc1cnc(N2CCN(c3nc4c(c(NC5(CO)CCC5)n3)[S+]([O-])CC4)CC2)nc1 (stereo not shown) [Compound 57]
The IC50 of the first is lower: < 10 nM for the first, 10 to 50 nM for the second.

`[O-][S@+]1CCc2nc(N3CC=C(c4nc5ccccc5o4)CC3)nc(NC3(CO)CCC3)c21` [Compound 58] and `CC1CN(c2ccc3c(c2)OCC2CN(c4nc5c(c(NC6(CO)CCC6)n4)[S@+]([O-])CC5)CCN32)C1` (single isomer, unassigned) [Compound 81-2] cannot be ordered by IC50: < 10 nM for the first, < 10 nM for the second.

Molecular target: T2, PDE4B2 (Homo sapiens, UniProt Q07343)
T2 construct: purchased BPS Bioscience 60343
Test: Effect of compounds on PDE4B2 activity (fluorescence polarization kit)
Format: biochemical
Details: class symbols; read-out: PDE4B2 IC50
Method: The effect of compounds on PDE4B2 activity was detected by a fluorescence polarization kit (BPS Bioscience, Catalog #60343). According to the instructions of the kit, FAM-Cyclic-3′,5′-AMP at a final concentration of […], 1 ng/well of PDE4B2 (PDE buffer was added to the negative control well), and a compound diluted in a gradient manner (PDE buffer containing 10% DMSO was added to the positive control well) were added to each well, fully mixed, and then reacted at room temperature for 1 h. The Binding Agent was diluted with the Binding Agent Diluent (cAMP) at a ratio of 1:100 for later use, the Binding Agent dilution was taken and added to the test plate at 50 μl/well and incubated at room temperature with slow shaking for 20 minutes. After the incubation was complete, Envision was used for FP detection, with Excitation at 480 nm and Emission at 535 nm. FP was usually represented by mP value.
[formula] • I∥ (S535): fluorescence intensity in parallel direction • I⊥ (P535): fluorescence intensity in perpendicular direction • G: G factor=1
as §1, §2

T2 sequence (Q07343 1-564 isoform Q07343-2): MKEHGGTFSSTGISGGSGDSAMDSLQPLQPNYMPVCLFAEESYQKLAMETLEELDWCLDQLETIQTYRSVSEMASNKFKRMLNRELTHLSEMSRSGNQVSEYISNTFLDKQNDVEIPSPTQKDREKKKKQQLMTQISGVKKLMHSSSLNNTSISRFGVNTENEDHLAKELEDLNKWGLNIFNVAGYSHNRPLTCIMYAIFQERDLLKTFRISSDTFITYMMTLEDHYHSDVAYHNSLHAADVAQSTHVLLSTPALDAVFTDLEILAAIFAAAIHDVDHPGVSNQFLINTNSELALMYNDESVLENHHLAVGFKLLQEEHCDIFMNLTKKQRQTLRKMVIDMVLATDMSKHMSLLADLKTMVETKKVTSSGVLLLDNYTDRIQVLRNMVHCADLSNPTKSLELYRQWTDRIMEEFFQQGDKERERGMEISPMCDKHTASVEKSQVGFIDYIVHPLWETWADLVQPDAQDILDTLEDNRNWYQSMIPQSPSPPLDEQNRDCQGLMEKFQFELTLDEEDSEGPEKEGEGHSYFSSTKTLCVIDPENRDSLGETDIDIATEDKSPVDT

First: CC(=O)N1CCN2c3ccc(-c4nc5c(c(NC6(CO)CCC6)n4)[S+]([O-])CC5)cc3OCC2C1 (single isomer, unassigned) [Compound 78-1]
Second: CC1CN(c2ccc3c(c2)OCC2CN(c4nc5c(c(NC6(CO)CCC6)n4)[S@+]([O-])CC5)CCN32)C1 (single isomer, unassigned) [Compound 81-2]
The IC50 of the first is higher: 10 to 50 nM for the first, < 10 nM for the second.

`[O-][S+]1CCc2nc(N3CC=C(c4ncc(C5CC5)cn4)CC3)nc(NC3(CO)CCC3)c21` (stereo not shown) [Compound 53] and `N#CC1(c2cnc(C3=CCN(c4nc5c(c(NC6(CO)CCC6)n4)[S@+]([O-])CC5)CC3)nc2)CC1` [Compound 64] cannot be ordered by IC50: < 10 nM for the first, < 10 nM for the second.

First: Cc1coc(C2=CCN(c3nc4c(c(NC5(CO)CCC5)n3)[S@+]([O-])CC4)CC2)n1 [Compound 60]
Second: Cc1nnc(C2=CCN(c3nc4c(c(NC5(CO)CCC5)n3)[S@+]([O-])CC4)CC2)o1 [Compound 55]
The IC50 of the first is higher: 10 to 50 nM for the first, < 10 nM for the second. The second is the more potent here.

`CP(C)(=O)c1cnc(C2=CCN(c3nc4c(c(NC5(CO)CCC5)n3)[S@+]([O-])CC4)CC2)nc1` [Compound 59] and `CP(C)(=O)c1ccnc(C2=CCN(c3nc4c(c(NC5(CO)CCC5)n3)[S@+]([O-])CC4)CC2)n1` [Compound 71] fall in the same range of IC50: 10 to 50 nM for the first, 10 to 50 nM for the second.

`[O-][S@+]1CCc2nc(N3C[C@H]4CN(c5ccc(Cl)cc5)C[C@H]4C3)nc(NC3(CO)CCC3)c21` [Compound 6] and `[O-][S@+]1CCc2nc(N3CC4(CC(c5ccc(Cl)cc5)C4)C3)nc(NC3(CO)CCC3)c21` [Compound 10] fall in the same range of IC50: 10 to 50 nM for the first, 10 to 50 nM for the second.

First: [O-][S@+]1CCc2nc(N3C[C@H]4CN(c5ncc6c(n5)CC6)C[C@H]4C3)nc(NC3(CO)CCC3)c21 [Compound 65]
Second: C#Cc1cnc(N2CCN(c3nc4c(c(NC5(CO)CCC5)n3)[S+]([O-])CC4)CC2)nc1 (stereo not shown) [Compound 57]
The IC50 of the first is lower: < 10 nM for the first, 10 to 50 nM for the second.

`C[Si]1(C)CCN(c2cnc(C3=CCN(c4nc5c(c(NC6(CO)CCC6)n4)[S@+]([O-])CC5)CC3)nc2)CC1` [Compound 54] and `[O-][S@+]1CCc2nc(N3CC=C(c4nc5ccccc5o4)CC3)nc(NC3(CO)CCC3)c21` [Compound 58] cannot be ordered by IC50: < 10 nM for the first, < 10 nM for the second.

Test system: not listed separately
Test: Inhibition of LPS-induced TNF-α release from human peripheral blood mononuclear cells in vitro
Format: cell-based
Details: PBMC, hPBMC, 100 ng/mL LPS, 4 h, class symbols, read-out: Re IC50 (nM) (relative IC50), TNF-α induced by LPS
Method: Normal human peripheral blood which was anticoagulated (citric acid anticoagulation) was collected, and hPBMCs were prepared by Ficoll-Paque PLUS (Cytiva, Cat #17144002, density 1.077 g/mL). The concentration of hPBMC cells was adjusted to 0.25×10^6 cells/mL with RPMI1640 medium and inoculated into a 96-well plate in an amount of 50000 cells per well. Subsequently, different concentrations of drugs were added for pre-incubation for 1 h (the DMSO final concentration was 0.1%, and the positive and negative control wells had the same volume of RPMI1640 containing 0.1% DMSO). After the pre-incubation was complete, 100 ng/mL LPS (SIGMA, L2630) was added to the compound and positive control wells, and the negative control well had the same volume of RPMI1640 containing 0.1% DMSO. Incubation was carried out for 4 h in an incubator at 37° C. and 5% CO2. The cell supernatant was collected, and the content of TNF-α in the supernatant sample was detected by human TNF-α Elisa quantitative test kit (Sino Biological, Cat #KIT10602). The IC50 value was calculated using GraphPad Prism software.

First: CC(=O)N1CCN2c3ccc(-c4nc5c(c(NC6(CO)CCC6)n4)[S+]([O-])CC5)cc3OCC2C1 (single isomer, unassigned) [Compound 78-1]
Second: Cc1nnc(C2=CCN(c3nc4c(c(NC5(CO)CCC5)n3)[S@+]([O-])CC4)CC2)o1 [Compound 55]
The IC50 of the first is lower: < 10 nM for the first, 10 to 50 nM for the second. The first is the more potent here.

Compared with `N#CC1(c2cnc(C3=CCN(c4nc5c(c(NC6(CO)CCC6)n4)[S@+]([O-])CC5)CC3)nc2)CC1` [Compound 64], `C[Si]1(C)CCN(c2cnc(C3=CCN(c4nc5c(c(NC6(CO)CCC6)n4)[S@+]([O-])CC5)CC3)nc2)CC1` [Compound 54] is higher in IC50: < 10 nM for the first, 10 to 50 nM for the second.

For `[O-][S@+]1CCc2nc(N3C[C@H]4CN(c5ncc6c(n5)CC6)C[C@H]4C3)nc(NC3(CO)CCC3)c21` [Compound 65], the IC50 was 10 to 50 nM.

Same assay, conditions: PBMC, hPBMC, 100 ng/mL LPS, 4 h, read-out: Max inhibition (%)

Going from `CC(=O)N1CCN2c3ccc(-c4nc5c(c(NC6(CO)CCC6)n4)[S+]([O-])CC5)cc3OCC2C1` (single isomer, unassigned) [Compound 78-1] to `Cc1nnc(C2=CCN(c3nc4c(c(NC5(CO)CCC5)n3)[S@+]([O-])CC4)CC2)o1` [Compound 55], the Emax rises from 61.2% to 67.2%.

Going from `N#CC1(c2cnc(C3=CCN(c4nc5c(c(NC6(CO)CCC6)n4)[S@+]([O-])CC5)CC3)nc2)CC1` [Compound 64] to `C[Si]1(C)CCN(c2cnc(C3=CCN(c4nc5c(c(NC6(CO)CCC6)n4)[S@+]([O-])CC5)CC3)nc2)CC1` [Compound 54], the Emax rises from 70.8% to 78.4%.

For `[O-][S@+]1CCc2nc(N3C[C@H]4CN(c5ncc6c(n5)CC6)C[C@H]4C3)nc(NC3(CO)CCC3)c21` [Compound 65], the Emax was 82%.
